What was measured:
[1] = target: T1, isolated guinea pig ileum (histamine) (Cavia porcellus, UniProt P31389); assay: Antihistaminic action (in vitro), inhibition of histamine-induced contraction of isolated ileum; format: cell-based; conditions: for inhibition at 10 µM: 10^-5 M, 30 minutes incubation, 37° C., read-out: Antihistaminic (%), contraction inhibition rate; for pD'2 (antihistaminic action): isolated guinea pig ileum, histamine, 30 min
T1 construct: An isolated guinea pig ileum was cut into about 2 cm lengths; from tissue; host or cells: isolated guinea pig ileum
T1 sequence (P31389 whole entry): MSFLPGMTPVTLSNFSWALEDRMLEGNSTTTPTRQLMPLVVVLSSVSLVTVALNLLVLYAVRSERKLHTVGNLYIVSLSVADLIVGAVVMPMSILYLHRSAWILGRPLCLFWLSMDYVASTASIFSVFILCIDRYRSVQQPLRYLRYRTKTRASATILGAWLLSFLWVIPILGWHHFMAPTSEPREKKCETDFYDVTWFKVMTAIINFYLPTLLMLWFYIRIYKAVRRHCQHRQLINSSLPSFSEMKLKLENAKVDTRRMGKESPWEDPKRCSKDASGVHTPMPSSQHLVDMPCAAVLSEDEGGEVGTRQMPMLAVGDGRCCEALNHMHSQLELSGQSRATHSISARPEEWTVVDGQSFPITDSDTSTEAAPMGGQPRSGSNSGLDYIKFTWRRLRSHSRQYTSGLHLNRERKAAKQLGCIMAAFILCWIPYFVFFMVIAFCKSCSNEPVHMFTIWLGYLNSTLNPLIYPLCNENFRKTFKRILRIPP
Experimental: (§1) Antihistaminic Action and Anti-LTD4 Action (In vitro Tests)
(§2) An isolated guinea pig ileum was cut into about 2 cm lengths. Each ileum piece was suspended in a 20-ml container filled with the Krebs buffer. An isotonic contractive response by histamine or leukotriene D4 was recorded on a recorder. The Krebs buffer was controlled at 37° C., through which a mixed gas (95%O2 -5%CO2) was bubbled. First, histamine or leukotriene D4 was added to an organ bath to measure its dose-response. After the ileum piece was washed several times with the buffer, a test compound (will be identified by its example number; this will apply likewise hereinafter) of a predetermined specific concentration was added. Subsequent to incubation for 30 minutes, the dose-response of histamine or leukotriene D4 was measured again. Incidentally, in Table 7, the values (%) indicate contraction inhibition rate at 10^-5 M, while the values in parentheses show pD'2 values in the case of antihistaminic action and IC50 values in the case of anti-LTD4 action.

H1 receptor = target: T2, H1 receptor (Cavia porcellus, UniProt P31389); assay: H1 receptor binding inhibition test ([^3 H]mepyramin, guinea pig cerebromembranous protein); conditions: for inhibition at 100 µM: a: 100 μM
T2 construct: guinea pig cerebromembranous protein; from tissue; host or cells: guinea pig cerebral (brain) membranes
T2 sequence (P31389 whole entry): as above
How it was run: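 [³H]Mepyramine binding to guinea pig brain membranes was stopped with ice-cold phosphate buffer and filtered, and bound radioactivity was measured by liquid scintillation. Nonspecific binding was defined with 10^-4 M R(-)dimethindene. IC50 came from concentration-response data and was converted to a dissociation constant by Cheng-Prusoff.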

histamine (H1) = assay: Antihistaminic (anti-H1) action in vivo, Evans Blue transudation in back skin after intracutaneous histamine; parameters: species or system male Hartley guinea pig; conditions: orally 10 mg/kg, one hour before; histamine 0.3 μg/ml, 0.1 ml intracutaneously
Experimental: (§3) Antihistaminic Action and Anti-LTD4 Action (In vivo Tests)
(§4) After the hair on the back of a male Hartley guinea pig was cut off, a test compound was orally administered at 10 mg/kg. One hour later, 5% Evans Blue solution was intravenously administered at 1 ml/kg and immediately after that, a 0.3 μg/ml solution of histamine and a 0.5 μg/ml solution of leukotriene D4 were intracutaneously administered each in an amount of 0.1 ml to the back. Thirty minutes later, the guinea pig was sacrificed under exsanguination, the skin was cut off, and the transudated color was quantitated by extraction. To a control, 0.5% CMC (carboxylmethylcellulose) was orally administered and the subsequent procedures were repeated likewise. From the difference in the amount of the transudated color between the control and the group administered with the test compound, an inhibition rate was calculated.

LTD4 receptor = target: T3, LTD4 receptor (Cavia porcellus, UniProt Q2NNR5); assay: LTD4 receptor binding inhibition test ([^3 H]leukotriene D4, guinea pig pulmomembranous protein); conditions: for Kd: read-out: LTD4 receptor, dissociation constant KD
T3 construct: guinea pig pulmomembranous protein; from tissue; host or cells: guinea pig lung membranes
T3 sequence (Q2NNR5 1-340): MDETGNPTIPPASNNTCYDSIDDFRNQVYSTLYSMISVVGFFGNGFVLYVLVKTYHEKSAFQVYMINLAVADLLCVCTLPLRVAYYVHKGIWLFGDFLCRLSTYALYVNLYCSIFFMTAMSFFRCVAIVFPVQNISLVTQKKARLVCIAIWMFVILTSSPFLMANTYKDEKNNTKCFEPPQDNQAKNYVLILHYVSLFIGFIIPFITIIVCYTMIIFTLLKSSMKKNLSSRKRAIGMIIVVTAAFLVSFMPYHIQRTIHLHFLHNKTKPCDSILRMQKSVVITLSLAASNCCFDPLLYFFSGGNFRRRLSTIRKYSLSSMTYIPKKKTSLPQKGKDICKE
How it was run: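 Filtration binding with [3H]LTD4 on guinea pig lung membranes; reaction stopped with ice-cold Tris-HCl/NaCl buffer (10 mM/100 mM, pH 7.5), bound radioactivity by scintillation counting. Nonspecific binding defined with 2 μM leukotriene D4. IC50 from dose-response, converted to dissociation constant by Cheng-Prusoff.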

leukotriene D4 = assay: Anti-LTD4 action in vivo, Evans Blue transudation in back skin after intracutaneous leukotriene D4; parameters: species or system male Hartley guinea pig; conditions: Cavia porcellus, po, 1 h; orally 10 mg/kg, one hour before; leukotriene D4 0.5 μg/ml, 0.1 ml intracutaneously; read-out: Anti-LTD4 action (%), inhibition rate
Experimental: as §3, §4

[2] = tested on: isolated guinea pig ileum (leukotriene D4); assay: Anti-LTD4 action (in vitro), inhibition of leukotriene D4-induced contraction of isolated ileum; format: cell-based; conditions: Cavia porcellus; for inhibition at 10 µM: 0.5 h, 10^-5 M, 30 minutes incubation, 37° C., read-out: Anti-LTD4 action (%), contraction inhibition rate; for IC50: isolated guinea pig ileum, leukotriene D4
Experimental: as §1, §2

cortical edema = conditions: intravenous administration after occurrence of ischemia; cited from earlier work
[3] = read-out: H1 receptor (%), inhibition rate

Row | Compound | inhibition at 10 µM [1] [%] | pD'2 (antihistaminic action) [1] | inhibition at 100 µM (H1 receptor; [3]) [%] | Kd (LTD4 receptor) [nM] | IC50 [2] [nM] | Kd (H1 receptor; read-out: H1 receptor, dissociation constant KD) [nM] | inhibition at 10 µM (LTD4 receptor; b: 10 μM, read-out: LTD4 receptor (%), inhibition rate) [%] | inhibition at 10 µM (H1 receptor; b: 10 μM, read-out: H1 receptor (%), inhibition rate) [%] | Anti-H1 action (%), inhibition rate (histamine (H1)) [%] | inhibition in vivo at 10 mg/kg (leukotriene D4) [%] | inhibition at 10 µM [2] [%] | increase and aggravation of cortical edema (cortical edema)
1 | CC1(C)C(=O)Nc2c(OCc3cccc(OCc4ccc5ccccc5n4)c3)cccc21 [Example 17, 3,3-Dimethyl-7-[3-(2-quinolinylmethoxy)benzyloxy]-2,3-dihydro-1H-indol-2-one] | 100 | 5.35 | 40 | 202 | 1500 |  |  |  | 19 | 21 | 96 | 
2 | O=C1CSc2cc(OCc3cccc(OCc4ccc5ccccc5n4)c3)ccc2N1 [Example 10, 7-[3-(2-Quinolinylmethoxy)benzyloxy]-3,4-dihydro-2H-1,4-benzothiazin-3-one] |  |  | 50 | 12.5 |  |  |  |  | 36 | 32 |  | 
3 | CC1(C)C(=O)Nc2c(OCc3ccc(OCc4ccc5ccccc5n4)cc3)cccc21 [Example 30, 3,3-Dimethyl-7-[4-(2-quinolinylmethoxy)benzyloxy]-2,3-dihydro-1H-indol-2-one] |  |  | 32 | 200 |  |  |  |  | 40 | 44 |  | 
4 | CCCc1c(OCC(O)COc2ccc3c(=O)cc(C(=O)O)oc3c2CCC)ccc(C(C)=O)c1O (stereo not shown) [FPL55712] |  |  |  |  |  |  |  |  |  |  |  | significantly inhibited
5 | CC1(C)C(=O)Nc2cc(OCc3cccc(OCc4ccc5ccccc5n4)c3)ccc21 [Example 15] |  |  | 36 |  |  |  | 37 |  | 17 | 37 |  | 
6 | O=C1CCc2cc(OCc3cccc(OCc4ccc5ccccc5n4)c3)ccc2N1 [Example 6] | 37 |  |  | 81.4 | 460 |  |  | 18 |  | 12 | 98 | 

Second part, led by results:

Row | inhibition at 10 µM [1] [%] | pD'2 (antihistaminic action) [1] | inhibition at 100 µM (H1 receptor; [3]) [%] | Kd (LTD4 receptor) [nM] | IC50 [2] [nM] | Kd (H1 receptor; read-out: H1 receptor, dissociation constant KD) [nM] | inhibition at 10 µM (LTD4 receptor; b: 10 μM, read-out: LTD4 receptor (%), inhibition rate) [%] | inhibition at 10 µM (H1 receptor; b: 10 μM, read-out: H1 receptor (%), inhibition rate) [%] | Compound | Anti-H1 action (%), inhibition rate (histamine (H1)) [%] | inhibition in vivo at 10 mg/kg (leukotriene D4) [%] | inhibition at 10 µM [2] [%] | increase and aggravation of cortical edema (cortical edema)
7 | 16 |  |  | 209 | 1700 | 87900 |  |  | O=C1CCc2ccc(OCc3ccc(OCc4ncc5ccccc5n4)cc3)cc2N1 [Example 35, 7-[4-(2-quinazolinylmethoxy)benzyloxy]-1,2,3,4-tetrahydroquinolin-2-one] |  | 11 | 87 | 
8 | 65 | 5.25 | 46 | 9.7 | 130 |  |  |  | O=C1CSc2cc(OCc3cccc(OCc4ncc5ccccc5n4)c3)ccc2N1 [Example 33, 7[3-(2-quinazolinylmethoxyl)benzyloxy]-3,4-dihydro-2H-1,4-benzothiazin-3-one] |  | 40 | 100 | 
9 |  |  | 29 | 12600 |  |  |  |  | O=C1CS(=O)(=O)c2cc(OCc3cccc(OCc4nc5ccccc5s4)c3)ccc2N1 [Example 78, 7-[3-(2-Benzothiazolylmethoxy)benzyloxy]-3,4-dihydro-2H-1,4-benzothiazin-3-one 1,1-dioxide] |  | 32 |  | 

From patent publication US5885987A, “Phenylene derivatives” (Kowa Co., Ltd., priority 1996, dated 1999)
